Measurements: ChEMBL document CHEMBL1134516, “Probing the interaction of dengue virus envelope protein with heparin: assessment of glycosaminoglycan-derived inhibitors” (J Med Chem, 2001)

Tested on: Dengue virus
Assay: Dissociation constant for Dengue virus envelope protein binding by surface plasmon resonance
Format: functional

Cc1ccc(C(=O)Nc2ccc(S(=O)(=O)O)c3cc(S(=O)(=O)O)cc(S(=O)(=O)O)c23)cc1NC(=O)c1cccc(NC(=O)Nc2cccc(C(=O)Nc3cc(C(=O)Nc4ccc(S(=O)(=O)O)c5cc(S(=O)(=O)O)cc(S(=O)(=O)O)c45)ccc3C)c2)c1 [SURAMIN]
Kd: 40 nM
